In publication PMC6277767, “Broad and Region-Specific Impacts of the Synthetic Cannabinoid CP 55,940 in Adolescent and Adult Female Mouse Brains” (Frontiers in Molecular Neuroscience, 2018):

Tested on: CD1 female mouse brain lipidome
Assay: Brain-region lipid levels (HPLC/MS/MS lipidomics) 2 h after single i.p. 3 mg/kg CP 55,940 vs vehicle
Assay type: in vivo
Method: The Bloomington Institutional Animal Care and Use Committee of Indiana University reviewed and approved the animal procedures. Female mice from the CD1 strain were utilized to match our study examining THC’s effects on the brain lipidome ([Leishman et al., 2018]). Mice were given a single i.p. injection of either 3 mg/kg CP or 1:1:18 cremophor:ethanol:saline vehicle (please refer to the section “3 mg/kg CP Is Relevant for Synthetic Cannabinoid Abuse and Has Stronger Effects on the Female Mouse Brain Lipidome During Adolescence” for a justification of dose and use of female mice). Three different age groups were given injections: PND 35 and PND 50 adolescents, and adult mice (PND 113). At least eight mice in each age group received CP and at least eight received vehicle. Matching the THC study time course ([Leishman et al., 2018]), mice were sacrificed via rapid decapitation 2 h after injection. Brains were immediately removed and flash-frozen in liquid nitrogen, and then stored at -80°C until dissections were performed. Brains were dissected on an ice-cold dissection plate into the following regions: STR, HIPP, CER, THAL, CTX, HYP, MID, and STEM. These abbreviations for these brain areas will be used exclusively when discussing the results generated by these specific dissections. Each dissected area was immediately placed in liquid nitrogen and then stored at -80°C until used for lipid extraction.
Tissue extracts were performed as previously described ([Bradshaw et al., 2006]; [Stuart et al., 2013]; [Raboune et al., 2014]; [Leishman et al., 2016a],[b], [2017], [2018]). First, samples were shock frozen in liquid nitrogen, weighed, and transferred to a centrifuge tube. The mass of the largest sample was multiplied by 50 to determine how many milliliters of HPLC-grade methanol (Fisher, Fair Lawn, NJ, United States) to add. Then, samples were spiked with 500 pmol deuterium-labeled NAGly (d8NAGly; Cayman Chemical, Ann Arbor, MI, United States). Samples were placed on ice in darkness for 2 h then individually homogenized and centrifuged at 19,000 × g for 20 min at 20°C. Supernatants were diluted with HPLC water (purified in house) to make a solution of 75% water, 25% supernatant. Lipids were partially purified on C18 solid phase extraction columns (Agilent, Palo Alto, CA, United States). A series of four elutions with 1.5 mL of 60%, 75%, 85%, and 100% methanol were collected ([Stuart et al., 2013]; [Leishman et al., 2016a],[b], [2018]).
As previously described ([Bradshaw et al., 2006]; [Tan et al., 2006]; [Smoum et al., 2010]; [Stuart et al., 2013]; [Tortoriello et al., 2013]; [Raboune et al., 2014]; [Leishman et al., 2016a],[b], [2017], [2018]), samples were analyzed using an Applied Biosystems API 3000 triple quadrupole mass spectrometer with electrospray ionization (Foster City, CA, United States). Using an Agilent XDB-C18 reversed phase analytical column and optimized mobile phase gradients, 20 μL from each elution were chromatographed. Two Shimadzu 10ADvp pumps (Columbia, MD, United States) provided the pressure for gradient elution. Mobile phase A: 20% methanol, 80% water (v/v) and 1 mM ammonium acetate (Sigma, St. Louis, MO, United States). Mobile phase B: 100% methanol, 1 mM ammonium acetate. Every method run began with 0% mobile phase B, reached 100% mobile phase B flowing at 0.2 mL/min, and gradually returned to 0% mobile phase B.
This screening library will be referred to as the lipidome when discussing data from this study. HPLC/MS/MS data were analyzed using Analyst software (Applied Biosystems) ([Bradshaw et al., 2006]; [Tan et al., 2006]; [Stuart et al., 2013]; [Tortoriello et al., 2013]; [Raboune et al., 2014]; [Leishman et al., 2016a],[b], [2017], [2018]). Chromatograms (Supplementary Figure 3) were generated by determining the retention time of analytes from the analytical column with a [M-1] or [M+1] parent peak and a fragmentation peak corresponding to the programmed values. […]

[1] = adult brainstem, 3mg/kg CP 55,940
[2] = adult cortex, 3 mg/kg CP 55,940, p .004
[3] = adult cortex, 3 mg/kg CP 55,940, p .008
[4] = adult cortex, 3 mg/kg CP 55,940, p .028
[5] = adult cortex, 3 mg/kg CP 55,940, p .055
[6] = adult cortex, 3 mg/kg CP 55,940, p .057
[7] = adult cortex, 3 mg/kg CP 55,940, p .077
[8] = adult cortex, 3 mg/kg CP 55,940, p .086
[9] = adult cortex, 3 mg/kg CP 55,940, p .090
[10] = adult female mice, brainstem, 3mg/kg CP 55,940

SMILES: CCCCCCC(C)(C)c1ccc([C@@H]2C[C@H](O)CC[C@H]2CCCO)c(O)c1 [CP 55,940]
- N-docosahexaenoyl alanine level, Mean [1]: 3.28E-13
- N-docosahexaenoyl ethanolamine level, Mean [1]: 2.85E-11
- N-docosahexaenoyl glycine level, Mean [1]: 5.52E-13
- N-docosahexaenoyl phenylalanine level, Mean [1]: 3.64E-14
- N-linoleoyl GABA level, Mean [1]: 6.22E-12
- N-linoleoyl alanine level, Mean [1]: 2E-13
- N-linoleoyl ethanolamine level, Mean [1]: 8.37E-12
- N-linoleoyl glycine level, Mean [1]: 1.41E-13
- N-linoleoyl methionine level, Mean [1]: BDL
- N-oleoyl GABA level, Mean [1]: 1.65E-11
- N-oleoyl alanine level, Mean [1]: 3.26E-12
- N-oleoyl dopamine level, Mean [1]: BDL
- N-oleoyl ethanolamine level, Mean [1]: 2.44E-10
- N-oleoyl ethanolamine, Direction (relative to Veh) [1]: ↓
- N-oleoyl ethanolamine, Magnitude (x Veh level) [1]: 0.76 x Veh level
- N-oleoyl glycine level, Mean [1]: 2.1E-12
- N-oleoyl leucine level, Mean [1]: 2E-12
- N-oleoyl methionine level, Mean [1]: 4.11E-13
- N-oleoyl phenylalanine level, Mean [1]: 4.28E-13
- N-palmitoyl GABA level, Mean [1]: 1.95E-11
- N-palmitoyl alanine level, Mean [1]: 3.16E-12
- N-palmitoyl ethanolamine level, Mean [1]: 8.74E-11
- N-palmitoyl glycine level, Mean [1]: 2.79E-12
- N-palmitoyl leucine level, Mean [1]: 3.05E-12
- N-palmitoyl leucine, Direction (relative to Veh) [1]: ↑
- N-palmitoyl leucine, Magnitude (x Veh level) [1]: 1.30 x Veh level
- N-palmitoyl methionine level, Mean [1]: 5.07E-12
- N-palmitoyl phenylalanine level, Mean [1]: 2.38E-13
- N-palmitoyl valine Direction (relative to Veh) [1]: ↑
- N-palmitoyl valine Magnitude (x Veh level) [1]: 1.43 x Veh level
- N-stearoyl GABA level, Mean [1]: 1.37E-11
- N-stearoyl alanine level, Mean [1]: 5.4E-12
- N-stearoyl ethanolamine level, Mean [1]: 3.01E-11
- N-stearoyl glycine level, Mean [1]: 4.95E-12
- N-stearoyl leucine level, Mean [1]: 1.96E-12
- N-stearoyl methionine level, Mean [1]: 4.69E-13
- N-stearoyl phenylalanine level, Mean [1]: 1.53E-13
- Oleic acid, Direction (relative to Veh) [1]: ↓
- Oleic acid, Magnitude (x Veh level) [1]: 0.80 x Veh level
- PGE2 Direction (relative to Veh) [1]: ↓
- PGE2 Magnitude (x Veh level) [1]: 0.87 x Veh level
- 2-arachidonoyl glycerol level, Mean (adult cortex, 3mg/kg CP 55,940): 3.28E-09
- 2-linoleoyl glycerol level, Mean (adult cortex, 3mg/kg CP 55,940): 1.48E-10
- 2-oleoyl glycerol level, Mean (adult cortex, 3mg/kg CP 55,940): 1.56E-09
- 2-palmitoyl glycerol level, Mean (adult cortex, 3mg/kg CP 55,940): 8.13E-11
- 6-ketoPGF1α level, Mean (adult cortex, 3mg/kg CP 55,940): 1.5E-11
- 11-OH-THC level, Mean (adult cortex, 3mg/kg CP 55,940): BDL
- 11-nor-9-carboxyTHC level, Mean (adult cortex, 3mg/kg CP 55,940): BDL
- Arachidonic acid level, Mean (adult cortex, 3mg/kg CP 55,940): 9.03E-10
- Cannabidiol level, Mean (adult cortex, 3mg/kg CP 55,940): BDL
- Linoleic acid level, Mean (adult cortex, 3mg/kg CP 55,940): 5.34E-10
- N- stearoyl valine level, Mean (adult cortex, 3mg/kg CP 55,940): 2.51E-14
- N-arachidonoyl proline level, Mean (adult cortex, 3mg/kg CP 55,940): BDL
- N-arachidonoyl taurine level, Mean (adult cortex, 3mg/kg CP 55,940): 8.95E-11
- N-arachidonoyl tryptophan level, Mean (adult cortex, 3mg/kg CP 55,940): BDL
- N-arachidonoyl tyrosine level, Mean (adult cortex, 3mg/kg CP 55,940): 6.06E-13
- N-docosahexaenoyl proline level, Mean (adult cortex, 3mg/kg CP 55,940): BDL
- N-docosahexaenoyl tryptophan level, Mean (adult cortex, 3mg/kg CP 55,940): BDL
- N-docosahexaenoyl tyrosine level, Mean (adult cortex, 3mg/kg CP 55,940): 3.81E-13
- N-linoleoyl proline level, Mean (adult cortex, 3mg/kg CP 55,940): BDL
- N-linoleoyl serine level, Mean (adult cortex, 3mg/kg CP 55,940): 1.53E-11
- N-linoleoyl tryptophan level, Mean (adult cortex, 3mg/kg CP 55,940): BDL
- N-linoleoyl tyrosine level, Mean (adult cortex, 3mg/kg CP 55,940): BDL
- N-nervonoyl valine level, Mean (adult cortex, 3mg/kg CP 55,940): BDL
- N-oleoyl proline level, Mean (adult cortex, 3mg/kg CP 55,940): BDL
- N-oleoyl serine level, Mean (adult cortex, 3mg/kg CP 55,940): 8.25E-11
- N-oleoyl tryptophan level, Mean (adult cortex, 3mg/kg CP 55,940): BDL
- N-oleoyl tyrosine level, Mean (adult cortex, 3mg/kg CP 55,940): 3.46E-13
- N-oleoyl valine level, Mean (adult cortex, 3mg/kg CP 55,940): 1.3E-14
- N-palmitoyl proline level, Mean (adult cortex, 3mg/kg CP 55,940): BDL
- N-palmitoyl serine level, Mean (adult cortex, 3mg/kg CP 55,940): 6.45E-12
- N-palmitoyl tryptophan level, Mean (adult cortex, 3mg/kg CP 55,940): BDL
- N-palmitoyl tyrosine level, Mean (adult cortex, 3mg/kg CP 55,940): 7.95E-13
- N-palmitoyl valine level, Mean (adult cortex, 3mg/kg CP 55,940): 1.13E-13
- N-stearoyl proline level, Mean (adult cortex, 3mg/kg CP 55,940): BDL
- N-stearoyl serine level, Mean (adult cortex, 3mg/kg CP 55,940): 9.84E-12
- N-stearoyl tryptophan level, Mean (adult cortex, 3mg/kg CP 55,940): BDL
- N-stearoyl tyrosine level, Mean (adult cortex, 3mg/kg CP 55,940): 1.21E-13
- Oleic acid level, Mean (adult cortex, 3mg/kg CP 55,940): 4.6E-10
- PGE2 level, Mean (adult cortex, 3mg/kg CP 55,940): 3.08E-10
- PhosphoLEA level, Mean (adult cortex, 3mg/kg CP 55,940): 1.8E-12
- THC level, Mean (adult cortex, 3mg/kg CP 55,940): BDL
- 6-ketoPGF1α Direction (relative to Veh) [2]: ↓
- 6-ketoPGF1α Magnitude (x Veh level) [2]: 0.68
- N-palmitoyl valine Direction (relative to Veh) [3]: ↑
- N-palmitoyl valine Magnitude (x Veh level) [3]: 1.49
- PGF2α Direction (relative to Veh) [4]: ↓
- PGF2α Magnitude (x Veh level) [4]: 0.89
- N-linoleoyl GABA Direction (relative to Veh) [5]: ↓
- N-linoleoyl GABA Magnitude (x Veh level) [5]: 0.86
- N-stearoyl phenylalanine, Direction (relative to Veh) [6]: ↓
- N-stearoyl phenylalanine, Magnitude (x Veh level) [6]: 0.66
- Arachidonic acid, Direction (relative to Veh) [7]: ↓
- Arachidonic acid, Magnitude (x Veh level) [7]: 0.86
- N-arachidonoyl taurine Direction (relative to Veh) [8]: ↓
- N-arachidonoyl taurine Magnitude (x Veh level) [8]: 0.93
- 2-linoleoyl glycerol Direction (relative to Veh) [9]: ↓
- 2-linoleoyl glycerol Magnitude (x Veh level) [9]: 0.76
- 2-arachidonoyl glycerol level, Mean [10]: 4.32E-09
- 2-linoleoyl glycerol level, Mean [10]: 2.54E-10
- 2-oleoyl glycerol level, Mean [10]: 3.17E-09
- 2-palmitoyl glycerol level, Mean [10]: 3.83E-11
